In article doi:10.1101/2022.10.06.511132v1, “Development of Enterovirus anti-viral agents that target the viral 2C protein” (biorxiv, 2022):

What was measured:
EV-A71 Δ2C^116-329 = target: T1, EV-A71 Δ2C^116-329 (Enterovirus A71, UniProt B9VUU3); assay: malachite green ATPase assay; type: biochemical
T1 construct: N-terminally truncated mature protein 2C residues 116-329, cut from the genome polyprotein; N-terminal MBP tag and C-terminal His6 (kept, MBP-Δ2C-(His)6); codon-optimised synthetic gene in pMALc5x, E. coli Rosetta 2(DE3) pLysS; active as hexamer
T1 sequence (B9VUU3 1227-1440, stated change not applied): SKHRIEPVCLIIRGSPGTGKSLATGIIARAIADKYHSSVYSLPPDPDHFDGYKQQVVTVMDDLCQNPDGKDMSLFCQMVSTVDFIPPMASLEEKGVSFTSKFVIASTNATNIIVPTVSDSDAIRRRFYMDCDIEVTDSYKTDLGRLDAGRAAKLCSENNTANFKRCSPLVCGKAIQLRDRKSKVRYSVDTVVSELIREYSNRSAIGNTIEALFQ

EV-A71 [1] = assay: microbe, parasite or virus in culture; parameters: NIAID secondary assay, neutral red cytopathic effect reduction; conditions: Enterovirus A, EV71 / EVA71, read-out: EC50 µM, EV-71 neutral red
EV-A71 [2] = assay: microbe, parasite or virus in culture; parameters: NIAID secondary assay, virus yield reduction, visual titre; conditions: Enterovirus A, EV71 / EVA71, read-out: EC90 µM, EV-71 VYR
EV-68 (EV-D68) [3] = assay: microbe, parasite or virus in culture; parameters: NIAID secondary assay, neutral red cytopathic effect reduction; conditions: Enterovirus D, read-out: EC50 µM, EV-68 neutral red
EV-68 (EV-D68) [4] = assay: microbe, parasite or virus in culture; parameters: NIAID secondary assay, virus yield reduction, visual titre; conditions: Enterovirus D, read-out: EC90 µM, EV-68 VYR

Row | Structure (SMILES) | IC50 (EV-A71 Δ2C^116-329) [µM] | EC50 (EV-A71 [1]) [µM] | EC90 (EV-A71 [2]) [µM] | EC50 (EV-68 (EV-D68) [3]) [µM] | EC90 (EV-68 (EV-D68) [4]) [µM]
1 | O=C(Nc1ccc(-c2nc3cc4ccccc4cc3[nH]2)cc1)c1cccc(Br)c1 [SJW-2C-239] | 33.1 |  |  |  | 
2 | Cc1ccc2[nH]c(-c3ccc(NC(=O)c4cccs4)cc3)nc2c1 [SJW-2C-227] | 23.4 | 1.7 | 3.2 | 0.52 | 0.59
3 | Cc1ccc2[nH]c(-c3ccc(NC(=O)c4ccc(C)c(C)c4)cc3)nc2c1 [SJW-2C-234] | 55 |  |  |  | 
